These results are taken from PubChem BioAssay AID1996.

Values after ≈ are worked out from the molar mass of the structure shown. Values joined by “and” are separate entries in the source; they are usually repeats but may differ in a detail not shown here. Equal entries are not always repeated. Residues, ends and D or L forms follow the SMILES beside them. *: point of attachment. Cbz = O=C(OCc1ccccc1)*

For this data set the following is noted: buffer; pH 7.4; 200.0 µM.
For the molecule `CSc1nc(C)c(Cc2c(F)cccc2Cl)c(=O)[nH]1`, the solubility (kinetic) amounted to 1 µg/mL (≈ 3.35 µM). Molecule `Cc1c(CNCCc2ccccc2)c(C(=O)O)c(C)n1-c1ccccc1` yielded a solubility (kinetic) of more than 52.3 µg/mL. Turning to `Cc1cccc2c1N(CCOc1ccccc1)C(=O)C2=O`, the solubility (kinetic) is 3.4 µg/mL (≈ 12.1 µM). With `COc1ccccc1NC(=O)COC(=O)Cn1cnc2c1c(=O)n(C)c(=O)n2C` the figure was more than 60.2 µg/mL; with `O=C(O)CN1C(=O)S/C(=C\c2ccc3c(c2)OCO3)C1=O`, 41 µg/mL (≈ 133 µM). For `O=C1N(Cc2ccccc2)c2ccc(Cl)cc2C12OCCO2`, the solubility (kinetic) turned out to be 9 µg/mL (≈ 28.5 µM).

As to `CN1CCC(CNC(=O)Nc2csc3ccccc23)CC1`, the kinetic solubility is more than 45.5 µg/mL. `Cc1ccc(-c2csc(NC(=O)c3ccco3)n2)cc1C` gave a kinetic solubility of 0.7 µg/mL (≈ 2.35 µM). `CCc1cccc(C)c1NC(=O)C1CCCN(S(C)(=O)=O)C1` (stereo unspecified): the solubility (kinetic) was more than 48.7 µg/mL. Regarding `O=C(NNC(=S)NC(=O)c1ccc(F)cc1)c1cccnc1`, the kinetic solubility was more than 47.7 µg/mL.

Consider `Cc1ccc(C(=O)N2CCN(c3ncnc4c(C)csc34)CC2)cc1`, for which the solubility (kinetic) was 4.3 µg/mL (≈ 12.2 µM). `CSc1cc(-c2ccncc2)nc(-c2ccc(Cl)cc2)c1` showed a kinetic solubility of less than 0.3 µg/mL. On to `CCc1ccc(N(CC(=O)N2CCOCC2)S(C)(=O)=O)cc1`, for which the solubility (kinetic) was more than 49 µg/mL. Molecule `O=C1C2CCCN2C(=S)N1c1ccc(Cl)cc1` (stereo unspecified) yielded a solubility (kinetic) of more than 40 µg/mL. With `COc1ccc(C2NC(c3ccc(OC)cc3)C(C)C(=O)C2C)cc1` (stereo unspecified) the figure was 12.2 µg/mL (≈ 35.9 µM); with `Cc1cccc(OCC(=O)NCCNC(=O)c2cnccn2)c1`, 46.5 µg/mL (≈ 148 µM). With `CN(C)c1nc2c(N)ncnc2n1[C@H]1O[C@@H](CO)[C@H](O)[C@@H]1O` the figure was more than 46.5 µg/mL; with `Cc1ccc2[nH]cc(CCNC(=O)c3ccco3)c2c1`, 38.1 µg/mL (≈ 142 µM); with `Cc1cccc(C)c1OCc1cc(C(=O)NC2CCC(O)CC2)no1` (stereo unspecified), 19.4 µg/mL (≈ 56.3 µM).

`O=C(NCCCN1CCOCC1)c1cc2ccccc2cc1O`: the solubility (kinetic) is more than 47.2 µg/mL.

In turn, `Cc1nc(-c2ccc(C(=O)NCCO)cc2)cs1` returned a solubility (kinetic) of more than 39.3 µg/mL. Molecule `O=C1Nc2cccnc2N(C(=O)CCl)c2ccccc21` had a kinetic solubility of more than 43.2 µg/mL. Consider `O=c1onc(-c2cccnc2)n1-c1ccccc1F`, for which the kinetic solubility is 33 µg/mL (≈ 128 µM). With `S=c1nc(Cc2ccccc2)[nH]c2ccccc12` the figure was 2.4 µg/mL (≈ 9.51 µM). With `CC(Sc1nc(N)cc(=O)[nH]1)C(=O)Nc1nc2c(s1)CCCC2` (stereo unspecified) the figure was 8.7 µg/mL (≈ 24.8 µM); with `O=C(COC(=O)c1ccccc1O)Nc1cc([N+](=O)[O-])ccc1Cl`, less than 0.4 µg/mL. Regarding `COc1cc(OC)cc(C(=O)NCCCCc2ccccc2)c1`, the solubility (kinetic) was 1.3 µg/mL (≈ 4.15 µM). With `O=c1[nH]c2ccccc2n1CCCN1CCC(n2c(=O)[nH]c3cc(Cl)ccc32)CC1` the figure was 50.4 µg/mL (≈ 118 µM); with `CCC(=NCc1ccco1)c1c(O)n(-c2ccccc2C)c(=O)[nH]c1=O`, more than 53 µg/mL; with `O=C(O)CSCC(=O)NCc1csc2ccc(Cl)cc12`, 37.9 µg/mL (≈ 115 µM).

In the case of `Cc1ccccc1-c1nnc(CS(=O)(=O)c2ccccc2)o1`, the solubility (kinetic) is more than 47.2 µg/mL. With `CCCSC1C(C)=C(C)C(=O)N1Cc1ccccc1` (stereo unspecified) the figure was 35.5 µg/mL (≈ 129 µM); with `CCc1nc(N2CCN(C(C)=O)CC2)c2c3c(sc2n1)CCCC3`, more than 51.7 µg/mL; with `Cc1ccc2nc(-c3ccc(N)cc3)sc2c1`, 1.1 µg/mL (≈ 4.58 µM). With `Cc1ccc(S(=O)(=O)CC(=O)Nc2cccc(C)n2)cc1` the figure was 11.5 µg/mL (≈ 37.8 µM).

Consider `CC(=O)c1c(C)nc(Nc2nc(C)c3cc(C)ccc3n2)nc1C`, for which the solubility (kinetic) was more than 48.2 µg/mL. Molecule `CC1(C)CC2(CCO1)OC(=O)CC2C(=O)Nc1ccc(Cl)cc1[N+](=O)[O-]` (stereo unspecified) registered a solubility (kinetic) of more than 57.4 µg/mL. `O=c1oc2ccc([N+](=O)[O-])cc2c(N2CCOCC2)c1[N+](=O)[O-]` showed a solubility (kinetic) of more than 48.2 µg/mL. Under `Cc1ccc(OCC(=O)Nc2ccon2)c([N+](=O)[O-])c1` stands 4.5 µg/mL (≈ 16.2 µM). With `COc1ccc(-c2cc(C(=O)Nc3ccc(F)cc3F)no2)cc1` the figure was less than 0.4 µg/mL; with `COc1ccc(CN2CCCCCC2)cc1Br`, 43.3 µg/mL (≈ 145 µM); with `COC(=O)C(C)NC(=O)C1CCCN1C(=O)CNC(=O)OCc1ccccc1` (stereo not drawn) (Cbz-Gly-Pro-Ala-OMe; configuration not given here), more than 58.7 µg/mL. With `COc1ccc(CNC(=O)c2cc(=O)c3cc(C)ccc3o2)cc1` the figure was less than 0.7 µg/mL. For `Cc1ccc(NC(=O)c2cc3ccccc3cc2O)cc1`, the kinetic solubility is less than 0.6 µg/mL. With `Cc1cc(N2CCN(C(=O)c3cccs3)CC2)c(F)cc1[N+](=O)[O-]` the figure was 1.5 µg/mL (≈ 4.29 µM). Take `COCCN1CCn2c(nc3cc(NS(C)(=O)=O)ccc32)C1`: the kinetic solubility is more than 48.7 µg/mL. `Cc1cccc(C)c1NC(=S)NCCSc1ccc(Cl)cc1` registered a solubility (kinetic) of 3.3 µg/mL (≈ 9.4 µM). With `CN1C(=O)c2ccccc2C(C(=O)O)C1c1cccc([N+](=O)[O-])c1` (stereo unspecified) the figure was more than 48.9 µg/mL.

`O=C(Nc1ccc(Cl)cn1)c1ccc2[nH]c(=O)c(=O)[nH]c2c1` yielded a solubility (kinetic) of 11.7 µg/mL (≈ 36.9 µM). With `O=C(Cc1c(F)cccc1Cl)OCC(=O)N1CCN(c2ccccc2)CC1` the figure was 39.6 µg/mL (≈ 101 µM).

For the molecule `O=C(Nc1ccccc1Cl)c1ccc([N+](=O)[O-])o1`, the kinetic solubility was 39.4 µg/mL (≈ 148 µM).

Consider `CCOc1ccc(C(C)=O)cc1Cn1c(=O)oc2ccccc21`, for which the solubility (kinetic) was determined as 13.7 µg/mL (≈ 44 µM). Molecule `Cn1c(=O)[nH]c(NCCc2ccc(O)cc2)c([N+](=O)[O-])c1=O` gave a kinetic solubility of more than 45.9 µg/mL. As for `Cc1ccc(-c2ccc(S(=O)(=O)NCC3CCCO3)cc2)cc1` (stereo unspecified), the solubility (kinetic) was 1.6 µg/mL (≈ 4.83 µM). `CCOC(=O)C1Nc2ccc(C(=O)O)cc2C2C=CCC12` (stereo unspecified) displayed a solubility (kinetic) of more than 43.1 µg/mL. On to `Cc1c(Cl)cccc1NC(=O)CSc1nccn1C`, for which the kinetic solubility is more than 44.4 µg/mL.

Turning to `COc1ccc(C)cc1N(CC(=O)N1CCOCC1)S(C)(=O)=O`, the kinetic solubility was more than 51.4 µg/mL.

`O=C1CC(c2ccco2)Sc2ccccc2N1` (stereo unspecified) had a kinetic solubility of more than 36.8 µg/mL. `Cc1oc2c(cc(NS(=O)(=O)c3ccc(Cl)cc3)c3ccccc32)c1C(=O)O` came in with a kinetic solubility of more than 62.4 µg/mL. Under `O=C1CSC(c2ccc([N+](=O)[O-])cc2)N1c1ccccc1F` (stereo unspecified) stands more than 47.7 µg/mL; under `CS(=O)(=O)Nc1ccccc1C(=O)OCC(=O)NC1CC1`, more than 46.9 µg/mL.

Take `COc1cccc(NC(=O)CN2C(=O)COc3ccc(C)cc32)c1`: the kinetic solubility amounted to 1.9 µg/mL (≈ 5.82 µM). Under `CCCCNC(=S)Nc1ccc(C(F)(F)F)cc1` stands 15.7 µg/mL (≈ 56.8 µM). Molecule `Cc1ccc(SCCN2CCN(C)CC2)cc1.Cl` registered a solubility (kinetic) of 35.5 µg/mL. Against the preceding molecule, the solubility kinetic is about 2.3-fold higher.

The molecule `O=C(NCCC1=CCCCC1)c1c(O)nc2ccccn2c1=O` displayed a solubility (kinetic) of 8.7 µg/mL (≈ 27.8 µM). `CCOc1ccc(C(=O)N2CCN(c3ccccc3)CC2)cc1` had a solubility (kinetic) of 46.5 µg/mL (≈ 150 µM). This solubility kinetic is about 5.3-fold higher than that of the molecule before. Under `CC(C)(C)c1ccc(OCCCCCCN2CCNCC2)cc1` stands 31.9 µg/mL (≈ 100 µM). Under `COCCN1C(=O)C(=O)/C(=C(/O)c2ccc(C)cc2)C1c1ccccn1` (stereo unspecified) stands more than 52.9 µg/mL. In turn, `CN1C(=O)C(=Cc2cn(CC#N)c3ccccc23)C(=O)N(C)C1=O` had a solubility (kinetic) of 8.1 µg/mL (≈ 25.1 µM). Regarding `CC(C)CC(=O)Nc1ccc(C(=O)Nc2cccc(O)c2)cc1`, the solubility (kinetic) stood at 26.7 µg/mL (≈ 85.5 µM). In turn, `O=C(CCC(=O)NC1CCCCC1)Nc1cccnc1` gave a kinetic solubility of more than 41.3 µg/mL.

Take `Cc1c(NC(=O)C(C)OC(=O)c2ccccc2O)c(=O)n(-c2ccccc2)n1C` (stereo unspecified): the solubility (kinetic) is more than 59.3 µg/mL. Under `CCn1cc(CCC(=O)NC(C)c2ccccc2)c2ccccc21` (stereo unspecified) stands 7.4 µg/mL (≈ 23.1 µM); under `Cc1[nH]c(=O)[nH]c(=O)c1S(=O)(=O)Nc1ccc(S(N)(=O)=O)cc1`, 48.8 µg/mL (≈ 135 µM); under `O=C(CSc1ccccn1)Nc1ccc(Cl)c([N+](=O)[O-])c1`, 1.7 µg/mL (≈ 5.25 µM). Under `CNS(=O)(=O)c1cc(Cl)ccc1Sc1ccccc1C(=O)O` stands more than 53.7 µg/mL; under `COc1ccc2oc(C(=O)OCC(=O)N3CC(C)OC(C)C3)c(C)c2c1` (stereo unspecified), 51.6 µg/mL (≈ 143 µM). With `CCSc1ncc(Cl)c(C(=O)Nc2ccccc2Cl)n1` the figure was less than 0.2 µg/mL. As for `NC(=O)c1cc(S(=O)(=O)Nc2ccccc2)cs1`, the solubility (kinetic) was more than 42.3 µg/mL. With `O=c1oc2ccccc2c(Nc2ccc(Cl)cc2)c1[N+](=O)[O-]` the figure was 0.9 µg/mL (≈ 2.84 µM); with `O=C(Nc1ccc2ccccc2n1)C1CCCCC1`, 26.6 µg/mL (≈ 105 µM). Molecule `CCC(=O)Nc1nc2ccc([N+](=O)[O-])cc2s1` displayed a solubility (kinetic) of 0.9 µg/mL (≈ 3.58 µM). With `Cc1ccc(SCCC(=O)Nc2nccs2)cc1` the figure was 2.5 µg/mL (≈ 8.98 µM). With `COc1ccc(CCNC(=O)c2ccc([N+](=O)[O-])cc2)cc1` the figure was 5.3 µg/mL (≈ 17.6 µM); with `Nc1nc(-c2cc(-c3ccccc3)no2)cs1`, 4.4 µg/mL (≈ 18.1 µM); with `CC(=O)Nc1ccc(C(=O)OCC(=O)NCc2ccc3c(c2)OCO3)cc1`, 8.1 µg/mL (≈ 21.9 µM). Under `FC(F)(F)c1cccc(CNC2CCN(Cc3ccccc3)CC2)c1` stands 38.6 µg/mL (≈ 111 µM); under `O=C1c2cccc3cccc(c23)C(=O)N1Cc1cccnc1`, 1.6 µg/mL (≈ 5.55 µM); under `Cc1nc([N+](=O)[O-])c(C(=O)OCc2ccccc2C#N)n1C`, more than 45 µg/mL.

On to `O=C(NCc1cccc(Cl)c1)C1CCCO1` (stereo unspecified), for which the solubility (kinetic) was 31.3 µg/mL (≈ 131 µM). The molecule `Cc1ccc(C(=O)Nc2cccc3cccnc23)cc1Br` showed a kinetic solubility of less than 0.4 µg/mL.

For `COc1ccc(N2CCOCC2)c(NC(=O)c2cccc3ccccc23)c1`, the kinetic solubility was found to be 6 µg/mL (≈ 16.6 µM). With `Nc1ccc([As](=O)(O)O)cc1` the figure was more than 32.6 µg/mL; with `COc1ccc(C(=O)NCC(=O)N/N=C/c2cccnc2)cc1`, more than 46.8 µg/mL; with `CC(C)Oc1ccccc1Cn1c(=O)oc2ccccc21`, 9 µg/mL (≈ 31.8 µM). `O=c1c2ccccc2[se]n1-c1ccccc1`: the solubility (kinetic) is 13.6 µg/mL and 6.6 µg/mL. With `Cc1cc(C)c2[nH]c(C(=O)Nc3ccc4c(c3)OCO4)cc2c1` the figure was 2.2 µg/mL (≈ 7.14 µM). Molecule `CSc1cccc(NC(=O)C2CC(=O)N(Cc3ccccc3)C2)c1` (stereo unspecified) gave a kinetic solubility of more than 51.1 µg/mL. Regarding `C=CCNC(=O)c1ccc(N(Cc2ccccc2)S(C)(=O)=O)cc1`, the kinetic solubility is more than 51.7 µg/mL. With `Cc1ccc(C(=O)OCC(=O)NC(C)c2ccccc2)s1` (stereo unspecified) the figure was 16.1 µg/mL (≈ 53.1 µM); with `O=C(CN1C(=O)c2ccccc2C1=O)Nc1nccs1`, 17.4 µg/mL (≈ 60.6 µM).

The kinetic solubility is solubility judged after dilution from a stock solution rather than from solid.
